# Measured values as given in the Kinase Knowledgebase extract (Sharma et al. 2016).
# Biological target: PIK3CA (human) (UniProt P42336)
# Assay: Cell-Based Assay
# Settings: bt474
# Sequence of PIK3CA (human) (P42336 whole entry, looked up): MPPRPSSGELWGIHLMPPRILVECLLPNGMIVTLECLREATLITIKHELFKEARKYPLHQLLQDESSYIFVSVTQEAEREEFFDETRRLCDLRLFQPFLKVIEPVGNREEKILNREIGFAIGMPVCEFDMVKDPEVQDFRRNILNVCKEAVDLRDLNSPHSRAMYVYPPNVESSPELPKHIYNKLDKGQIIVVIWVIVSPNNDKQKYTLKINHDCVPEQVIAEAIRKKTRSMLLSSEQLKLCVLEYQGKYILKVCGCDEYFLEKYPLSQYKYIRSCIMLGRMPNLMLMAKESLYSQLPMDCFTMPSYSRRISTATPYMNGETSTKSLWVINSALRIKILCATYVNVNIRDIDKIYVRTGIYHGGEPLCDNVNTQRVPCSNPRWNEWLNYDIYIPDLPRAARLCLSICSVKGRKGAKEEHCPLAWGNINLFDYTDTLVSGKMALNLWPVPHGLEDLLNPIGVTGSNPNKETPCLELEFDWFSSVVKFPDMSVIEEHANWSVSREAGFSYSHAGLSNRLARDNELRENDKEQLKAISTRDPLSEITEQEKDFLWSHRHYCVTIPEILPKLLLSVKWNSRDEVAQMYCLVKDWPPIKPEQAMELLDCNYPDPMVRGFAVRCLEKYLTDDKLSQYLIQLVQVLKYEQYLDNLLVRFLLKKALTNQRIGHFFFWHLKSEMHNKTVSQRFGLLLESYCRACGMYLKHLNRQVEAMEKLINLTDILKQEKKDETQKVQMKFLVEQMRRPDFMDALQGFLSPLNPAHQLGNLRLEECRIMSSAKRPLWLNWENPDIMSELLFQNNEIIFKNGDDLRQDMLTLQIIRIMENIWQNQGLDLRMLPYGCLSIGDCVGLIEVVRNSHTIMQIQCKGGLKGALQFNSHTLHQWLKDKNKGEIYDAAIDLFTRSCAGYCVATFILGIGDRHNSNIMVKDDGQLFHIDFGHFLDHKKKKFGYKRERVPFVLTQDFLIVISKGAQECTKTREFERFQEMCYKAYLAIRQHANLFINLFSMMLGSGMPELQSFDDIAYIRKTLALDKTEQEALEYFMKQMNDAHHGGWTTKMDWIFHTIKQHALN
row,SMILES,IC50
1,Cn1c(=O)n(C2CCC2)c2c3cc(-c4ccc(OCCCN5CCCC5)nc4)ccc3ncc21,> 9.56 µM
2,CO[C@H]1C[C@@H](n2c(=O)n(C)c3cnc4cc(F)c(-c5ccc(OCCCN6CCCC6)nc5)cc4c32)C1,> 29.8 µM
3,Cn1c(=O)n(C2CCC2)c2c3cc(-c4ccc(OCCCN5CCCCC5)nc4)ccc3ncc21,> 14.3 µM
4,Cn1c(=O)n([C@H]2CCCOC2)c2c3cc(-c4ccc(OCCCN5CCCC5)nc4)c(F)cc3ncc21,> 30 µM
5,Cn1c(=O)n(C2CCOCC2)c2c3cc(-c4ccc(OCCCN5CCCCC5)nc4)c(F)cc3ncc21,> 16.7 µM
6,CN(C)CCCOc1ccc(-c2cc3c(cc2F)ncc2c3n([C@H]3CCCOC3)c(=O)n2C)c(F)n1,> 9.4 µM
7,Cn1c(=O)n([C@H]2CCCOC2)c2c3cc(-c4ccc(OCCCN5CCCCC5)nc4)c(F)cc3ncc21,> 23.5 µM
8,O=c1[nH]c2cnc3ccc(-c4ccc(OCCCN5CCCCC5)nc4)cc3c2n1C1CCOCC1,> 25 µM
9,CO[C@H]1C[C@@H](n2c(=O)n(C)c3cnc4cc(F)c(-c5ccc(OCCCN(C)C)nc5F)cc4c32)C1,> 28 µM
10,Cn1c(=O)n([C@H]2CCCOC2)c2c3cc(-c4ccc(OCCCN5CCCC5)nc4F)ccc3ncc21,> 16.2 µM

# Continued, values first:
row,IC50,SMILES
1,6.84 µM,CN(C)CCCOc1ccc(-c2ccc3ncc4c(c3c2)n(C2COC2)c(=O)n4C)cn1
2,1.08 µM,CN(C)CCCOc1ccc(-c2ccc3ncc4c(c3c2)n([C@H]2C[C@@H](O)C2)c(=O)n4C)cn1
3,> 20.2 µM,CN(C)CCCOc1ccc(-c2cc3c(cc2F)ncc2c3n([C@H]3CCCOC3)c(=O)n2C)cn1
4,0.499 µM,Cn1c(=O)n([C@H]2CCCOC2)c2c3cc(-c4ccc(OCCCN5CCC5)nc4)ccc3ncc21
5,> 26.3 µM,Cn1c(=O)n(C2COC2)c2c3cc(-c4ccc(OCCCN5CCCCC5)nc4)ccc3ncc21
6,> 10.9 µM,Cn1c(=O)n([C@H]2CCCOC2)c2c3cc(-c4ccc(OCCCN5CCCCC5)nc4)ccc3ncc21
7,> 29.1 µM,CN(C)CCCOc1ccc(-c2cc3c(cc2F)ncc2c3n(C3COC3)c(=O)n2C)cn1
8,10 µM,CN(C)CCCOc1ccc(-c2cc3c(cc2F)ncc2c3n([C@@H]3CCCOC3)c(=O)n2C)cn1
9,> 30 µM,CO[C@H]1C[C@@H](n2c(=O)n(C)c3cnc4cc(F)c(-c5ccc(OCCCN(C)C)nc5)cc4c32)C1
